Key:
[1] = system: Hepatitis B virus; experiment: Antiviral activity against Hepatitis B virus infected in human HepG2.2.15 cells; format: functional, organism-based
[2] = Tmax in ICR mouse at 50 mg/kg, po; format: ADME, organism-based; conditions: in vivo
[3] = Cmax in ICR mouse at 50 mg/kg, po; format: ADME, organism-based; parameters: route oral, dose 50 mg/kg; conditions: in vivo
[4] = Half life in ICR mouse at 50 mg/kg, po; format: ADME, organism-based; conditions: in vivo
[5] = AUC (0 to infinity) in ICR mouse at 50 mg/kg, po; format: ADME, organism-based; parameters: route oral, time infinity, dose 50 mg/kg; conditions: in vivo
[6] = Cytotoxicity against human HepG2.2.15 cells assessed as reduction in cell viability by CellTiter-Glo reagent based assay; format: toxicity, HepG2 2.2.15

Compound	EC50 [1] [µM]	Tmax [2] [min]	Cmax [3] [ng/mL]	half-life [4] [min]	AUC(0-inf) [5] [ng·h/mL]	CC50 [6] [µM]
C[C@H]1Cn2ncc(N3CC(c4ccccc4)CC3=O)c2CN1C(=O)Nc1cc(F)c(F)c(F)c1 (some centres undefined)	0.009	15	3130	136	6510	12.8
C[C@H]1Cn2ncc(N3CC(c4ccccc4)CC3=O)c2CN1S(=O)(=O)Nc1cc(F)c(F)c(F)c1 (some centres undefined)	> 2					> 2
O=C(Nc1cc(F)c(F)c(F)c1)N1Cc2c(-c3ccc(F)cc3)cnn2CC1C1CC1 (centres undefined)	0.004					38.5
CC1CCn2ncc(N3CC(c4ccccc4)CC3=O)c2CN1C(=O)Nc1cc(F)c(F)c(F)c1 (centres undefined)	> 2					> 2
O=C1CC(c2ccccn2)CN1c1cnn2c1CN(C(=O)Nc1cc(F)c(F)c(F)c1)C(C1CC1)C2 (centres undefined)	0.012					96.2
CC1(C)CC(=O)N(c2cnn3c2CN(C(=O)Nc2cc(F)c(F)c(F)c2)C(C2CC2)C3)C1 (centres undefined)	0.02					115
O=C1CC(c2ncco2)CN1c1cnn2c1CN(C(=O)Nc1cc(F)c(F)c(F)c1)C(C1CC1)C2 (centres undefined)	0.009	15	8740	222	12200	> 200
O=C1CC(c2cnc(C(F)(F)F)s2)CN1c1cnn2c1CN(C(=O)Nc1cc(F)c(F)c(F)c1)C(C1CC1)C2 (centres undefined)	0.027					38.5
O=C1CC(c2nccs2)CN1c1cnn2c1CN(C(=O)Nc1cc(F)c(F)c(F)c1)C(C1CC1)C2 (centres undefined)	0.011					115
CC1CN(C(=O)Nc2cc(F)c(F)c(F)c2)Cc2c(N3CC(C#N)CC3=O)cnn21 (centres undefined)	0.062					115
O=C1CC(c2ccccc2)CN1c1cnn2c1CN(C(=O)Nc1cc(F)c(F)c(F)c1)C(C1CC1)C2 (centres undefined)	0.006					12.8
O=C1NC(c2ccccc2)CN1c1cnn2c1CN(C(=O)Nc1cc(F)c(F)c(F)c1)C(C1CC1)C2 (centres undefined)	0.003					38.5
O=C1OC(c2ccccc2)CN1c1cnn2c1CN(C(=O)Nc1cc(F)c(F)c(F)c1)C(C1CC1)C2 (centres undefined)	0.018					7.41
O=C1OC(c2ccc(F)cc2)CN1c1cnn2c1CN(C(=O)Nc1cc(F)c(F)c(F)c1)C(C1CC1)C2 (centres undefined)	0.011					3.56
O=C1CC(C(F)(F)F)CN1c1cnn2c1CN(C(=O)Nc1cc(F)c(F)c(F)c1)C(C1CC1)C2 (centres undefined)	0.034					115
N#CC1CC(=O)N(c2cnn3c2CN(C(=O)Nc2cc(F)c(F)c(F)c2)C2(CC2)C3)C1 (centres undefined)	0.124					> 200
Cc1cnc(C2CC(=O)N(c3cnn4c3CN(C(=O)Nc3cc(F)c(F)c(F)c3)C(C3CC3)C4)C2)s1 (centres undefined)	0.018					96.2
C[C@H]1Cn2ncc(N3CC(c4ccccc4)CC3=O)c2CN1C(=S)Nc1cc(F)c(F)c(F)c1 (some centres undefined)	> 2					> 2
O=C1CC(c2ccccc2)CN1c1cnn2c1CN(C(=O)Nc1cc(F)c(F)c(F)c1)C1CCCCC12 (centres undefined)	0.027					21.4
O=C1CC(c2ccc(F)cn2)CN1c1cnn2c1CN(C(=O)Nc1cc(F)c(F)c(F)c1)C(C1CC1)C2 (centres undefined)	0.015					38.5
O=C1CC(Oc2ncc(F)cn2)CN1c1cnn2c1CN(C(=O)Nc1cc(F)c(F)c(F)c1)C(C1CC1)C2 (centres undefined)	0.009					96.2
Cc1nc(C2CC(=O)N(c3cnn4c3CN(C(=O)Nc3cc(F)c(F)c(F)c3)C(C3CC3)C4)C2)no1 (centres undefined)	0.016	19.8	3860	202	3860	> 200
C[C@H]1Cn2ncc(N3CC(c4ccccc4)CC3=O)c2CN1CC(=O)Nc1cc(F)c(F)c(F)c1 (some centres undefined)	> 2					> 2
O=C1c2ccccc2CN1c1cnn2c1CN(C(=O)Nc1cc(F)c(F)c(F)c1)C(C1CC1)C2 (centres undefined)	0.083					38.5

Continued, in another order:

EC50 [1] [µM]	Tmax [2] [min]	Cmax [3] [ng/mL]	half-life [4] [min]	AUC(0-inf) [5] [ng·h/mL]	Compound	CC50 [6] [µM]
0.038					CC1(C)CN(C(=O)Nc2cc(F)c(F)c(F)c2)Cc2c(N3CC(C#N)CC3=O)cnn21 (centres undefined)	> 200
0.023					O=C(Nc1cc(F)c(F)c(F)c1)N1Cc2c(-c3ccc(F)cc3F)cnn2CC1C1CC1 (centres undefined)	32
0.016	15	5270	57	4020	O=C1CC(Oc2ncccn2)CN1c1cnn2c1CN(C(=O)Nc1cc(F)c(F)c(F)c1)C(C1CC1)C2 (centres undefined)	> 200
0.015	15	5980	52.2	5070	O=C1CC(c2ncccn2)CN1c1cnn2c1CN(C(=O)Nc1cc(F)c(F)c(F)c1)C(C1CC1)C2 (centres undefined)	> 200
0.02					O=C1CC(c2ncc(F)cn2)CN1c1cnn2c1CN(C(=O)Nc1cc(F)c(F)c(F)c1)C(C1CC1)C2 (centres undefined)	115
> 2					O=C1CC(c2ccccc2)CN1c1cnn2c1CN(C(=O)Nc1cc(F)c(F)c(F)c1)C(Cc1ccccc1)C2 (centres undefined)	> 2
> 2					C[C@H]1Cn2ncc(N3CC(c4ccccc4)CC3=O)c2CN1C(=O)NCc1cc(F)c(F)c(F)c1 (some centres undefined)	> 2
> 2					O=C(Nc1cc(F)c(F)c(F)c1)N1CCCn2ncc(N3CC(c4ccccc4)CC3=O)c2C1 (centres undefined)	> 2
0.023					O=C1CC(c2ccc(F)cc2)CN1c1cnn2c1CN(C(=O)Nc1cc(F)c(F)c(F)c1)C(C1CC1)C2 (centres undefined)	32
0.012	15	6400	278	10600	N#CC1CC(=O)N(c2cnn3c2CN(C(=O)Nc2cc(F)c(F)c(F)c2)C(C2CC2)C3)C1 (centres undefined)	> 200
0.016					O=C1CC(c2cnco2)CN1c1cnn2c1CN(C(=O)Nc1cc(F)c(F)c(F)c1)C(C1CC1)C2 (centres undefined)	139

Source: ChEMBL document CHEMBL5046226, “Identification of (6S)-cyclopropyl-6,7-dihydropyrazolo[1,5-a]pyrazine-5(4H)-carboxamines as new HBV capsid assembly modulators” (Eur J Med Chem, 2022)
